Laboratory results as given in ChEMBL document CHEMBL4507265 (2021).

Key:
[1] = molecular target: Vascular endothelial growth factor receptor 1 (Homo sapiens) (UniProt P17948); settings: Compound concentration 1000.0 nM
[2] = system: Epidermal growth factor receptor (Homo sapiens), P00533 [UNDEFINED MUTATION]; settings: Compound concentration 1000.0 nM
[3] = molecular target: RAC-alpha serine/threonine-protein kinase (Homo sapiens) (UniProt P31749); settings: Compound concentration 1000.0 nM
[4] = molecular target: TGF-beta receptor type-2 (Homo sapiens) (UniProt P37173); settings: Compound concentration 1000.0 nM
[5] = molecular target: Serine/threonine-protein kinase MARK1 (Homo sapiens) (UniProt Q9P0L2); settings: Compound concentration 1000.0 nM
[6] = system: Receptor-type tyrosine-protein kinase FLT3 (Homo sapiens), P36888 [D835H]; settings: Compound concentration 1000.0 nM
[7] = molecular target: NUAK family SNF1-like kinase 1 (Homo sapiens) (UniProt O60285); settings: Compound concentration 1000.0 nM
[8] = molecular target: Alpha-2C adrenergic receptor (Homo sapiens) (UniProt P18825); settings: Compound concentration 10.0 uM
[9] = molecular target: Ribosomal protein S6 kinase alpha-4 (Homo sapiens) (UniProt O75676); settings: Compound concentration 1000.0 nM
[10] = molecular target: Epidermal growth factor receptor (Homo sapiens) (UniProt P00533); settings: Compound concentration 1000.0 nM
[11] = molecular target: Membrane-associated tyrosine- and threonine-specific cdc2-inhibitory kinase (Homo sapiens) (UniProt Q99640); settings: Compound concentration 1000.0 nM
[12] = system: Mast/stem cell growth factor receptor Kit (Homo sapiens), P10721 [D816V]; settings: Compound concentration 1000.0 nM
Sequence of Mast/stem cell growth factor receptor Kit (Homo sapiens), P10721 [D816V] (P10721 whole entry D816V): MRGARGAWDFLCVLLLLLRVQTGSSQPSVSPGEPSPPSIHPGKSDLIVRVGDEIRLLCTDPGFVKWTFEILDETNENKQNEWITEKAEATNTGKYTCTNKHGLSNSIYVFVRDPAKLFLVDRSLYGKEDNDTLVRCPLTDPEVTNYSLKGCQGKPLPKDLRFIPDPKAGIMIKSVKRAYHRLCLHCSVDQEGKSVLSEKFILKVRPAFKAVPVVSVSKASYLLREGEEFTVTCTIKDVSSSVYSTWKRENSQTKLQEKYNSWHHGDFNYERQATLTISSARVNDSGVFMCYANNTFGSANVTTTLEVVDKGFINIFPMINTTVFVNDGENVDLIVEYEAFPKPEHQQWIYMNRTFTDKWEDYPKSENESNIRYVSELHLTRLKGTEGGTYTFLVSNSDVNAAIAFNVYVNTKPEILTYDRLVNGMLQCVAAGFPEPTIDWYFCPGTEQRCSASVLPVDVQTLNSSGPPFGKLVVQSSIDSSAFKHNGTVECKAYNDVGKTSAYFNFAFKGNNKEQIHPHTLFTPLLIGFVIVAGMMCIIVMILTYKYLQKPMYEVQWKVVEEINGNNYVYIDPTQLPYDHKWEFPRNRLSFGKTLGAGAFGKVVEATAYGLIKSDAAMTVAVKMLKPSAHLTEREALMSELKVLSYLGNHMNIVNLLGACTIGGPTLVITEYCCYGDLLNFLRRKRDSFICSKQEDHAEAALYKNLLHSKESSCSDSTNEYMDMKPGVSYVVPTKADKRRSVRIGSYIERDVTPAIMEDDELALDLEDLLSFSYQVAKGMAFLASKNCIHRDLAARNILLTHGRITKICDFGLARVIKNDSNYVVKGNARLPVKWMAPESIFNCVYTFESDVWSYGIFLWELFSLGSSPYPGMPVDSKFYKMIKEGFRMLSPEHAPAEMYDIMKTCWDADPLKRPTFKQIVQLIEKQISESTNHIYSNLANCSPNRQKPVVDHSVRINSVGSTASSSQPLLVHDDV

[13] = system: Mast/stem cell growth factor receptor Kit (Homo sapiens), P10721 [L576P]; settings: Compound concentration 1000.0 nM
[14] = molecular target: Calcium/calmodulin-dependent protein kinase type II subunit gamma (Homo sapiens) (UniProt Q13555); settings: Compound concentration 1000.0 nM
[15] = molecular target: Inhibitor of nuclear factor kappa-B kinase subunit epsilon (Homo sapiens) (UniProt Q14164); settings: Compound concentration 1000.0 nM
Sequence of Inhibitor of nuclear factor kappa-B kinase subunit epsilon (Homo sapiens) (Q14164 whole entry): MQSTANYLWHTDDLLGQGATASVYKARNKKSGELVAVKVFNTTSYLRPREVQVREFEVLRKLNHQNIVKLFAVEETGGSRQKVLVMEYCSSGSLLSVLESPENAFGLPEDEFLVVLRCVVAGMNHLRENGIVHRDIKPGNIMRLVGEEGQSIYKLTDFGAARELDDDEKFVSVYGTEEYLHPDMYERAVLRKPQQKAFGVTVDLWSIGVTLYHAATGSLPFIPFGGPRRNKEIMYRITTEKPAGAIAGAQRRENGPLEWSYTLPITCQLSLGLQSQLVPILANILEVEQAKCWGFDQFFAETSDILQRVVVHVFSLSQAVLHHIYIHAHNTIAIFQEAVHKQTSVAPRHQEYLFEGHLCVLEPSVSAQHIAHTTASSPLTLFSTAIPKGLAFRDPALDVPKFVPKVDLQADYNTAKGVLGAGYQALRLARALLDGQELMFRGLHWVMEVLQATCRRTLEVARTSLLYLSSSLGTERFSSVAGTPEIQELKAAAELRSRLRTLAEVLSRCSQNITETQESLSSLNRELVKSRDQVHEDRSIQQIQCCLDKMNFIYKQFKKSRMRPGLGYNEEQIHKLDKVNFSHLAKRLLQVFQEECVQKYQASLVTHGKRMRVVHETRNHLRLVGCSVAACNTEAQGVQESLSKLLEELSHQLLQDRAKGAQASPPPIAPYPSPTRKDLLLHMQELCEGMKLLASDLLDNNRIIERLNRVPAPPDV

[16] = molecular target: Death-associated protein kinase 1 (Homo sapiens) (UniProt P53355); settings: Compound concentration 1000.0 nM
Sequence of Death-associated protein kinase 1 (Homo sapiens) (P53355 whole entry, looked up): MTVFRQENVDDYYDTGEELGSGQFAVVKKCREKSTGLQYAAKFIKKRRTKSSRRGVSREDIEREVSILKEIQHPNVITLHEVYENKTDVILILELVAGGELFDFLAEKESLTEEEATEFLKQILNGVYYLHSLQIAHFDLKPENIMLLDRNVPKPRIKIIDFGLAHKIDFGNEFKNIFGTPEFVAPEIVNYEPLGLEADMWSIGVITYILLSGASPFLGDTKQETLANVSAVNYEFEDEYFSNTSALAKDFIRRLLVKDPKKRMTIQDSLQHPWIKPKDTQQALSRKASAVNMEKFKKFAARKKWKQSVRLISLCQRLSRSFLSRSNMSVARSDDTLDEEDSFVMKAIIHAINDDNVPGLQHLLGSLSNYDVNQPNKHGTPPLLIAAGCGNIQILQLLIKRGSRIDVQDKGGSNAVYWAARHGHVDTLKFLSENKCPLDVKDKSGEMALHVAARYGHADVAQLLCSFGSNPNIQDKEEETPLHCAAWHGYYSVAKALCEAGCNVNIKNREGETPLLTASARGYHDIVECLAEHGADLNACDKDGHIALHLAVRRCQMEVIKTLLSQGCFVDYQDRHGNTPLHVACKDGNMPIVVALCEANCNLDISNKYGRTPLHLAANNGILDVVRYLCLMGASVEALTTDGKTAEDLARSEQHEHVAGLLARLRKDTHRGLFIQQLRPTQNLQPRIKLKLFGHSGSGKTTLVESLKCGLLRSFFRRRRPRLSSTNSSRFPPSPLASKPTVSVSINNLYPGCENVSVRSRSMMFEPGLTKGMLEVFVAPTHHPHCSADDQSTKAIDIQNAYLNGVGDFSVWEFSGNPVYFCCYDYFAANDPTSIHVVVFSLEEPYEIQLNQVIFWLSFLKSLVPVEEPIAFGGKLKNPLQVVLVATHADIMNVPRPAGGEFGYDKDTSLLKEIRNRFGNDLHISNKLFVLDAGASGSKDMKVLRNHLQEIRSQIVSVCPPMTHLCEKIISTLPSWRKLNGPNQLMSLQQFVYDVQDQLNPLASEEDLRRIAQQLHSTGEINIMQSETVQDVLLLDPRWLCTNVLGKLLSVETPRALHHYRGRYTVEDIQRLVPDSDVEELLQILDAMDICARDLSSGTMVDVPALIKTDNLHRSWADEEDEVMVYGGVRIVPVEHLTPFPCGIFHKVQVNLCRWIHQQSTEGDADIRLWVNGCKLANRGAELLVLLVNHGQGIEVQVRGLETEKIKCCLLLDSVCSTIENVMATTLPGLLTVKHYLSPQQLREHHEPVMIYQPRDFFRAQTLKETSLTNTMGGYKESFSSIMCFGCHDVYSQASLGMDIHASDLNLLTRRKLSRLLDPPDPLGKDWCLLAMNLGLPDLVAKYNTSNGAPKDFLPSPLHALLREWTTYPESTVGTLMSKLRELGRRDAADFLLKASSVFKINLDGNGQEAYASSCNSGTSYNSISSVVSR

[17] = molecular target: D(1A) dopamine receptor (Homo sapiens) (UniProt P21728); settings: Compound concentration 10.0 uM
[18] = molecular target: Cyclin-dependent kinase-like 5 (Homo sapiens) (UniProt O76039); settings: Compound concentration 1000.0 nM
[19] = molecular target: Mitogen-activated protein kinase kinase kinase 2 (Homo sapiens) (UniProt Q9Y2U5); settings: Compound concentration 1000.0 nM
[20] = molecular target: Tyrosine-protein kinase Fyn (Homo sapiens) (UniProt P06241); settings: Compound concentration 1000.0 nM
[21] = molecular target: Phosphorylase b kinase gamma catalytic chain, skeletal muscle/heart isoform (Homo sapiens) (UniProt Q16816); settings: Compound concentration 1000.0 nM
[22] = system: Tyrosine-protein kinase ABL1 (Homo sapiens), P00519 [F317I]; settings: Compound concentration 1000.0 nM
[23] = molecular target: Ephrin type-A receptor 3 (Homo sapiens) (UniProt P29320); settings: Compound concentration 1000.0 nM
Sequence of Ephrin type-A receptor 3 (Homo sapiens) (P29320 whole entry): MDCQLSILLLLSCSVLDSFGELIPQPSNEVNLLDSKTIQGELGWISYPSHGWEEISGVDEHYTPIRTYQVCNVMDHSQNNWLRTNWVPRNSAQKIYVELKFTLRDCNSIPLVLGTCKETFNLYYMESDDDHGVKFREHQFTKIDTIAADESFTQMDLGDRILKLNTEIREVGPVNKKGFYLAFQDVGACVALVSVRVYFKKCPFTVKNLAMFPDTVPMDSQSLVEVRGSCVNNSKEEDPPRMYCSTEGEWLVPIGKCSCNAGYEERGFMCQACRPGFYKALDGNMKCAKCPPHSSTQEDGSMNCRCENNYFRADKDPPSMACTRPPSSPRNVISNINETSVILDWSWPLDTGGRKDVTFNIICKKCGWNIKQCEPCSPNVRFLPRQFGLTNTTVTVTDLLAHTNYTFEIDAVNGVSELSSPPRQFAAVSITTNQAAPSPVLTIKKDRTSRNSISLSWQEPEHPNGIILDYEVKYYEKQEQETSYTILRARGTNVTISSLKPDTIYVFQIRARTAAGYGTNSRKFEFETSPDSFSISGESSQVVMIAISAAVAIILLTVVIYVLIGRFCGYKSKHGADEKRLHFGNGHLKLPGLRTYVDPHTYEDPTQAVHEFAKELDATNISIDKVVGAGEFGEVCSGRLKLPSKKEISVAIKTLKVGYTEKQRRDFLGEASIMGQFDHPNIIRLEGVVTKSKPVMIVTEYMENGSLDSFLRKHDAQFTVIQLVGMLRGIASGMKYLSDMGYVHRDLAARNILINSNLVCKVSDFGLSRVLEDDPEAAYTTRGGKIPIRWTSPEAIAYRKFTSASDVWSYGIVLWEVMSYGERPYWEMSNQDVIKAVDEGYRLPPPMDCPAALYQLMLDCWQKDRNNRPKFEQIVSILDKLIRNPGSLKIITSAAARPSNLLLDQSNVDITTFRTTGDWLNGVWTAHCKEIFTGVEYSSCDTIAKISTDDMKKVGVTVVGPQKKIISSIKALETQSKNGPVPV

[24] = molecular target: Serine/threonine-protein kinase Nek1 (Homo sapiens) (UniProt Q96PY6); settings: Compound concentration 1000.0 nM
[25] = molecular target: Serine/threonine-protein kinase NIM1 (Homo sapiens) (UniProt Q8IY84); settings: Compound concentration 1000.0 nM
[26] = molecular target: SRSF protein kinase 2 (Homo sapiens) (UniProt P78362); settings: Compound concentration 1000.0 nM
[27] = molecular target: 5-hydroxytryptamine receptor 5A (Homo sapiens) (UniProt P47898); settings: Compound concentration 10.0 uM
[28] = molecular target: Dual specificity mitogen-activated protein kinase kinase 6 (Homo sapiens) (UniProt P52564); settings: Compound concentration 1000.0 nM
[29] = molecular target: Tyrosine-protein kinase HCK (Homo sapiens) (UniProt P08631); settings: Compound concentration 1000.0 nM
[30] = molecular target: Dual specificity protein kinase TTK (Homo sapiens) (UniProt P33981); settings: Compound concentration 1000.0 nM
[31] = molecular target: Serine/threonine-protein kinase MRCK beta (Homo sapiens) (UniProt Q9Y5S2); settings: Compound concentration 1000.0 nM
[32] = molecular target: Mitogen-activated protein kinase kinase kinase 15 (Homo sapiens) (UniProt Q6ZN16); settings: Compound concentration 1000.0 nM
[33] = molecular target: RAF proto-oncogene serine/threonine-protein kinase (Homo sapiens) (UniProt P04049); settings: Compound concentration 1000.0 nM
[34] = molecular target: Serine/threonine-protein kinase 25 (Homo sapiens) (UniProt O00506); settings: Compound concentration 1000.0 nM
[35] = molecular target: Ephrin type-B receptor 6 (Homo sapiens) (UniProt O15197); settings: Compound concentration 1000.0 nM
Sequence of Ephrin type-B receptor 6 (Homo sapiens) (O15197 whole entry): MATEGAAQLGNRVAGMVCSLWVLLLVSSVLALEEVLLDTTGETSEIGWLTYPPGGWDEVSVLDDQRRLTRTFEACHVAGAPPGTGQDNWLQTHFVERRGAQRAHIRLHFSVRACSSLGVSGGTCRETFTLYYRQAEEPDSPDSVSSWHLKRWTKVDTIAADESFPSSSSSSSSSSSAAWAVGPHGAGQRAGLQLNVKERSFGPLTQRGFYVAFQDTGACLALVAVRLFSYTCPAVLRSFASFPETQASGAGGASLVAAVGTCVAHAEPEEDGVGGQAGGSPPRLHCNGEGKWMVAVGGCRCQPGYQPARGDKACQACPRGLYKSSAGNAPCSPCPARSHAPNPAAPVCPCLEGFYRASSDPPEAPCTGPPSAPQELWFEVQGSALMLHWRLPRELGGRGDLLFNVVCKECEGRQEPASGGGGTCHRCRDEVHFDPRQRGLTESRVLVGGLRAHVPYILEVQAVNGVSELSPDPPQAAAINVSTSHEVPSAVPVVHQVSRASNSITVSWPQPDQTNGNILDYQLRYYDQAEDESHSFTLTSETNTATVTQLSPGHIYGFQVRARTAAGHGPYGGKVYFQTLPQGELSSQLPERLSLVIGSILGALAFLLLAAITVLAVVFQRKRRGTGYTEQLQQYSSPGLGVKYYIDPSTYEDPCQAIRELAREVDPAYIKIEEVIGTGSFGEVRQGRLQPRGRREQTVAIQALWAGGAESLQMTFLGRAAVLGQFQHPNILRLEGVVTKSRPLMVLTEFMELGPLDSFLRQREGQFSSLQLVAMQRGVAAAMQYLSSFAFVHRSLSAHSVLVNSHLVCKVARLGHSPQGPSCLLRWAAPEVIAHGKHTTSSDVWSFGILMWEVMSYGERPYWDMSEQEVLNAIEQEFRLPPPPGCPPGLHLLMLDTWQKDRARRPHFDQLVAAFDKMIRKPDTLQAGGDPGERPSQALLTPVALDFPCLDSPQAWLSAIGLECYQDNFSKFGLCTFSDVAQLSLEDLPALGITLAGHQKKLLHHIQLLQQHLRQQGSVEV

[36] = molecular target: Ribosomal protein S6 kinase alpha-3 (Homo sapiens) (UniProt P51812); settings: Compound concentration 1000.0 nM
[37] = molecular target: Serine/threonine-protein kinase PRP4 homolog (Homo sapiens) (UniProt Q13523); settings: Compound concentration 1000.0 nM
[38] = molecular target: Phosphatidylinositol 5-phosphate 4-kinase type-2 beta (Homo sapiens) (UniProt P78356); settings: Compound concentration 1000.0 nM
[39] = system: Tyrosine-protein kinase ABL1 (Homo sapiens), P00519 [H396P]; settings: Compound concentration 1000.0 nM
[40] = molecular target: Tyrosine-protein kinase Yes (Homo sapiens) (UniProt P07947); settings: Compound concentration 1000.0 nM
[41] = molecular target: SNF-related serine/threonine-protein kinase (Homo sapiens) (UniProt Q9NRH2); settings: Compound concentration 1000.0 nM
[42] = molecular target: Serine/threonine-protein kinase MAK (Homo sapiens) (UniProt P20794); settings: Compound concentration 1000.0 nM
[43] = molecular target: Tyrosine-protein kinase receptor Tie-1 (Homo sapiens) (UniProt P35590); settings: Compound concentration 1000.0 nM
[44] = molecular target: Serine/threonine-protein kinase Nek6 (Homo sapiens) (UniProt Q9HC98); settings: Compound concentration 1000.0 nM
[45] = molecular target: Tyrosine-protein kinase FRK (Homo sapiens) (UniProt P42685); settings: Compound concentration 1000.0 nM

Compound NS(=O)(=O)c1cc(NC(=O)C2(c3ccccc3Cl)CC2)ccc1Oc1cccc(Cl)c1 [BAY-207] has a residual activity [1] of 100%, a residual activity [2] of 96% and a residual activity [3] of 78%. For the same compound, the residual activity [4] was 64%, the residual activity [5] was 83% and the residual activity [6] was 47%. It also gave a residual activity [7] of 95%, an inhibition [8] of 89.6% and a residual activity [9] of 89%. The residual activity [10] was 75%, the residual activity [11] was 70% and the residual activity [12] was 93%. For the same compound, the residual activity [13] was 89%, the residual activity [14] was 93% and the residual activity [15] was 70%. For the same compound, the residual activity [16] was 98%, the inhibition [17] was 3.57% and the residual activity [18] was 95%. For the same compound, the residual activity [19] was 100%, the residual activity [20] was 100% and the residual activity [21] was 89%. For the same compound, the residual activity [22] was 90%, the residual activity [23] was 100% and the residual activity [24] was 100%. The residual activity [25] was 86%, the residual activity [26] was 100% and the inhibition [27] was 5.57%. The residual activity [28] was 96%, the residual activity [29] was 89% and the residual activity [30] was 100%. It also gave a residual activity [31] of 62%, a residual activity [32] of 86% and a residual activity [33] of 81%. It also gave a residual activity [34] of 100%, a residual activity [35] of 81% and a residual activity [36] of 92%. The residual activity [37] was 68%, the residual activity [38] was 62% and the residual activity [39] was 93%. For the same compound, the residual activity [40] was 90%, the residual activity [41] was 100% and the residual activity [42] was 89%. For the same compound, the residual activity [43] was 85%, the residual activity [44] was 81% and the residual activity [45] was 99%.

Compound NS(=O)(=O)c1cc(NC(=O)Cc2ccccc2)ccc1Oc1cccc(Cl)c1 [BAY-1797] has a residual activity [1] of 80%, a residual activity [2] of 86% and a residual activity [3] of 100%. The residual activity [4] was 87%, the residual activity [5] was 100% and the residual activity [6] was 98%. It also gave a residual activity [7] of 100%, an inhibition [8] of 18.2% and a residual activity [9] of 90%. It also gave a residual activity [10] of 84%, a residual activity [11] of 96% and a residual activity [12] of 77%. For the same compound, the residual activity [13] was 78%, the residual activity [14] was 86% and the residual activity [15] was 69%. For the same compound, the residual activity [16] was 90%, the inhibition [17] was 21.6% and the residual activity [18] was 83%. For the same compound, the residual activity [19] was 84%, the residual activity [20] was 69% and the residual activity [21] was 87%. For the same compound, the residual activity [22] was 72%, the residual activity [23] was 78% and the residual activity [24] was 93%. The residual activity [25] was 62%, the residual activity [26] was 88% and the inhibition [27] was 1.47%. For the same compound, the residual activity [28] was 99%, the residual activity [29] was 54% and the residual activity [30] was 91%. The residual activity [31] was 100%, the residual activity [32] was 100% and the residual activity [33] was 100%. For the same compound, the residual activity [34] was 88%, the residual activity [35] was 92% and the residual activity [36] was 72%. The residual activity [37] was 97%, the residual activity [38] was 89% and the residual activity [39] was 73%. It also gave a residual activity [40] of 86%, a residual activity [41] of 100% and a residual activity [42] of 100%. The residual activity [43] was 100%, the residual activity [44] was 98% and the residual activity [45] was 98%.
